Experimental data: patent US10793892B2, “Method for detecting the presence of expanded spectrum β-lactamase-producing bacteria in a sample” (INSERM (INSTITUT NATIONAL DE LA SANTE ET DE LA RECHERCHE …, priority 2011, dated 2020)

What was measured:
E. coli = test: ESBL NDP test using cultured strains; type: biochemical, Escherichia coli; parameters: key: (+) and (−) referred to color change being, red to yellow or unchanged, respectively; (+) and (−) referred to color change being, red to yellow or unchanged, respectively
Method: (§1) Strains were isolated on Mueller-Hinton agar (Biorad, Marnes-la-Coquette, France) and incubated at 37° C. for 16 h to 24 h before performing the NDP rapid ESBL test as follows. One calibrated inoculated loop (10 μl) of the tested strain was resuspended in 150 μl of 20 mM Tris-HCl lysis buffer previously distributed in Microbead tubes (Ultraclean Microbial DNA isolation kit Bead Tubes, MO BIO Laboratories, Carlsbad, USA). Mechanical lysis of bacteria was performed by strong agitation of Microbead tubes using a vortex adapter (MO BIO Laboratories) for 30 min at room temperature. This bacterial suspension was centrifuged at 10,000×g at room temperature for 5 min. Thirty μl of the supernatant was mixed in a well of a 96-well tray with 100 μl of a 1 ml solution made of 3 mg of purified cefotaxime sodium salt (Sigma-Aldrich, Saint-Quentin-Fallavier, France) in a pH 7.8 phenol red solution. […]. The phenol red solution was made by taking 2 ml of a concentrated pH 8 phenol solution (made from a mixture of phenol red 0.5% in distilled water) to which 16.6 ml of distilled water was added. The pH value was then adjusted to a 7.8 value by adding drops of a 1 N NaOH solution. Mixture of the phenol red solution and the enzymatic suspension being tested was incubated at 37° C. for 30 min. Similarly, culture extracts were analyzed in wells containing cefotaxime and tazobactam (4 mg/ml). Other concentrations of tazobactam and other ß-lactamase inhibitors were tested giving less clear results (data not shown). […] This definition of test positivity will be applied throughout the study.

S. marcescens [1] = test: ESBL NDP test using cultured strains; type: biochemical, Serratia marcescens; parameters: key: (+) and (−) referred to color change being, red to yellow or unchanged, respectively; (+) and (−) referred to color change being, red to yellow or unchanged, respectively
Method: as §1

M. morganii = test: Susceptibility testing, MIC by Etest; type: cell-based, Morganella morganii; conditions: M. morganii Wild-type, chromosome-encoded cephalosporinase, n=2
Method: Susceptibility testing was performed by determining MIC values using the Etest® (AB bioMérieux; Solna, Sweden) on Mueller-Hinton agar plates at 37° C. and results were recorded according to US guidelines (CLSI), as updated in 2012 (2). The breakpoints for cefotaxime are susceptible (S)≤1 and resistant (R)≥4 μg/ml, and for ceftazidime S≤4 and R≥16 μg/ml.

S. marcescens [2] = test: ESBL NDP test using spiked blood cultures; type: biochemical, Serratia marcescens; parameters: key: (+) and (−) referred to color change being, red to yellow or unchanged, respectively; (+) and (−) referred to color change being, red to yellow or unchanged, respectively
Method: Strains were isolated on Mueller-Hinton agar (Biorad, Marnes-la-Coquette, France) and incubated at 37° C. for 16 h to 24 h before performing the NDP rapid ESBL test as follows. One calibrated inoculated loop (10 μl) of the tested strain was resuspended in 150 μl of 20 mM Tris-HCl lysis buffer previously distributed in Microbead tubes (Ultraclean Microbial DNA isolation kit Bead Tubes, MO BIO Laboratories, Carlsbad, USA). Mechanical lysis of bacteria was performed by strong agitation of Microbead tubes using a vortex adapter (MO BIO Laboratories) for 30 min at room temperature. This bacterial suspension was centrifuged at 10,000×g at room temperature for 5 min. Thirty μl of the supernatant was mixed in a well of a 96-well tray with 100 μl of a 1 ml solution made of 3 mg of purified cefotaxime sodium salt (Sigma-Aldrich, Saint-Quentin-Fallavier, France) in a pH 7.8 phenol red solution. […]. […] Similarly, culture extracts were analyzed in wells containing cefotaxime and tazobactam (4 mg/ml). […]
Rapid detection of ESBL producers was attempted from spiked blood cultures which positivity was assessed using the BactAlert blood culture system (bioMérieux). […] Spiked blood cultures were made of 1×10^3 CFU of each strain and incubated 24 to 48 h before a positivity of the blood culture was detected by the BactAlert system. […]

[3] = S. marcescens BG 1107 4243, Wild-type
[4] = S. marcescens BN 1201 0816, Wild-type

For `CO/N=C(\C(=O)N[C@@H]1C(=O)N2C(C(=O)O)=C(COC(C)=O)CS[C@H]12)c1csc(N)n1` [CTX, cefotaxime], the “ESBL NDP Test from: Colonies” value (E. coli; E. coli 09.11, TEM-52) was “+”, the “ESBL NDP Test from: Colonies” value (E. coli; E. coli 09.123, TEM-133) was “−” and the “ESBL NDP Test from: Colonies” value (E. coli; E. coli 09.124, TEM-52) was “+”. For the same compound, the “ESBL NDP Test from: Colonies” value (E. coli; E. coli 09.129, SHV-12) was “+”, the “ESBL NDP Test from: Colonies” value (E. coli; E. coli 09.173, SHV-12) was “+” and the “ESBL NDP Test from: Colonies” value (E. coli; E. coli 09.187, SHV-2a) was “+”. For the same compound, the “ESBL NDP Test from: Colonies” value (E. coli; E. coli 09.193, SHV-12) was “+”, the “ESBL NDP Test from: Colonies” value (E. coli; E. coli 09.207, SHV-2a) was “+” and the “ESBL NDP Test from: Colonies” value (E. coli; E. coli 09.225, TEM-52) was “+”. For the same compound, the “ESBL NDP Test from: Colonies” value (E. coli; E. coli 09.40, TEM-52) was “+”, the “ESBL NDP Test from: Colonies” value (E. coli; E. coli 09.41, SHV-12) was “+” and the “ESBL NDP Test from: Colonies” value (E. coli; E. coli 09.66, TEM-52) was “+”. The “ESBL NDP Test from: Colonies” value (E. coli; E. coli 09.73, TEM-52) was “+”, the “ESBL NDP Test from: Colonies” value (E. coli; E. coli 09.79, SHV-12) was “+” and the “ESBL NDP Test from: Colonies” value (E. coli; E. coli 09.92, TEM-52) was “+”. The “ESBL NDP Test from: Colonies” value (E. coli; E. coli 10.104, CTX-M-1) was “+”, the “ESBL NDP Test from: Colonies” value (E. coli; E. coli 10.11, CTX-M-14) was “+” and the “ESBL NDP Test from: Colonies” value (E. coli; E. coli 10.121, CTX-M-2) was “+”. The “ESBL NDP Test from: Colonies” value (E. coli; E. coli 10.124, CTX-M-14) was “+”, the “ESBL NDP Test from: Colonies” value (E. coli; E. coli 10.130, CTX-M-3) was “+” and the “ESBL NDP Test from: Colonies” value (E. coli; E. coli 10.13, CTX-M-14) was “+”. The “ESBL NDP Test from: Colonies” value (E. coli; E. coli 10.132, CTX-M-2) was “+”, the “ESBL NDP Test from: Colonies” value (E. coli; E. coli 10.16, CTX-M-15) was “+” and the “ESBL NDP Test from: Colonies” value (E. coli; E. coli 10.178, CTX-M-27) was “+”. The “ESBL NDP Test from: Colonies” value (E. coli; E. coli 10.198, CTX-M-27) was “+”, the “ESBL NDP Test from: Colonies” value (E. coli; E. coli 10.204, CTX-M-27) was “+” and the “ESBL NDP Test from: Colonies” value (E. coli; E. coli 10.207, CTX-M-27) was “+”. The “ESBL NDP Test from: Colonies” value (E. coli; E. coli 10.23, CTX-M-2) was “+”, the “ESBL NDP Test from: Colonies” value (E. coli; E. coli 10.32, CTX-M-14) was “+” and the “ESBL NDP Test from: Colonies” value (E. coli; E. coli 10.33, CTX-M-15) was “+”. The “ESBL NDP Test from: Colonies” value (E. coli; E. coli 10.36, CTX-M-1) was “+”, the “ESBL NDP Test from: Colonies” value (E. coli; E. coli 10.38, CTX-M-1) was “+” and the “ESBL NDP Test from: Colonies” value (E. coli; E. coli 10.43, CTX-M-15) was “+”. For the same compound, the “ESBL NDP Test from: Colonies” value (E. coli; E. coli 10.46, CTX-M-14) was “+”, the “ESBL NDP Test from: Colonies” value (E. coli; E. coli 10.49, CTX-M-15) was “+” and the “ESBL NDP Test from: Colonies” value (E. coli; E. coli 10.53, CTX-M-9) was “+”. For the same compound, the “ESBL NDP Test from: Colonies” value (E. coli; E. coli 10.64, CTX-M-32) was “+”, the “ESBL NDP Test from: Colonies” value (E. coli; E. coli 10.73, CTX-M-27) was “+” and the “ESBL NDP Test from: Colonies” value (E. coli; E. coli 10.74, CTX-M-15) was “+”. The “ESBL NDP Test from: Colonies” value (E. coli; E. coli 10.95, CTX-M-1) was “+”, the “ESBL NDP Test from: Colonies” value (E. coli; E. coli (Belgium), ACC-1) was “−” and the “ESBL NDP Test from: Colonies” value (E. coli; E. coli A7R5, SHV-3) was “+”. For the same compound, the “Test (color change)” value (E. coli; E. coli ACC-1, n=1, first line) was “−”, the “Test (color change)” value (E. coli; E. coli ACC-1, n=1, second line) was “+” and the “ESBL NDP Test from: Colonies” value (E. coli; E. coli BG 1106 5698, Penicillinase) was “−”. The “ESBL NDP Test from: Colonies” value (E. coli; E. coli BG 1106 6252, Wild-type) was “−”, the “ESBL NDP Test from: Colonies” value (E. coli; E. coli BG 1106 6367, Wild-type) was “−” and the “ESBL NDP Test from: Colonies” value (E. coli; E. coli BG 1106 7202, Penicillinase) was “−”. The “ESBL NDP Test from: Colonies” value (E. coli; E. coli BG 1107 8873, Wild-type) was “−”, the “ESBL NDP Test from: Colonies” value (E. coli; E. coli BG 1108 6157, Penicillinase) was “−” and the “ESBL NDP Test from: Colonies” value (E. coli; E. coli C5O52, CTX-M-28) was “+”. For the same compound, the “Test (color change)” value (E. coli; E. coli CMY-2, n=1) was “+”, the “Test (color change)” value (E. coli; E. coli CTX-M-1, n=16) was “+” and the “Test (color change)” value (E. coli; E. coli CTX-M-2, n=3) was “+”. For the same compound, the “Test (color change)” value (E. coli; E. coli CTX-M-3, n=1) was “+”, the “Test (color change)” value (E. coli; E. coli CTX-M-9, n=1) was “+” and the “Test (color change)” value (E. coli; E. coli CTX-M-14, n=15) was “+”. For the same compound, the “Test (color change)” value (E. coli; E. coli CTX-M-15, n=46) was “+”, the “Test (color change)” value (E. coli; E. coli CTX-M-27, n=6) was “+” and the “Test (color change)” value (E. coli; E. coli CTX-M-28, n=1) was “+”. For the same compound, the “Test (color change)” value (E. coli; E. coli CTX-M-32, n=1) was “+”, the “Test (color change)” value (E. coli; E. coli CTX-M-97, n=1) was “+” and the “Test (color change)” value (E. coli; E. coli DHA-1, n=1) was “−”. For the same compound, the “ESBL NDP Test from: Colonies” value (E. coli; E. coli Ec13 SYD, CMY-2) was “+”, the “ESBL NDP Test from: Colonies” value (E. coli; E. coli GOU, DHA-1) was “−” and the “ESBL NDP Test from: Colonies” value (E. coli; E. coli LOU, ACC-1) was “+”. For the same compound, the “Test (color change)” value (E. coli; E. coli SHV-2a, n=3) was “+”, the “Test (color change)” value (E. coli; E. coli SHV-3, n=1) was “+” and the “Test (color change)” value (E. coli; E. coli SHV-12, n=1) was “−”. For the same compound, the “Test (color change)” value (E. coli; E. coli SHV-12, n=6) was “+”, the “Test (color change)” value (E. coli; E. coli TEM-1 penicillinase, n=5) was “−” and the “Test (color change)” value (E. coli; E. coli TEM-12, n=1) was “−”. For the same compound, the “Test (color change)” value (E. coli; E. coli TEM-29, n=2) was “−”, the “Test (color change)” value (E. coli; E. coli TEM-52, n=8) was “+” and the “Test (color change)” value (E. coli; E. coli TEM-133, n=1) was “−”. For the same compound, the “Test (color change)” value (E. coli; E. coli VEB-1, n=1) was “+”, the “Test (color change)” value (E. coli; E. coli Wild-type, no resistance, n=5) was “−” and the “ESBL NDP Test from: Colonies” value (S. marcescens [1]; [3]) was “−”. For the same compound, the “ESBL NDP Test from: Colonies” value (S. marcescens [1]; [4]) was “−”, the “Test (color change)” value (S. marcescens [1]; S. marcescens Wild-type, chromosome-encoded cephalosporinase, n=2) was “−” and the MICs range (M. morganii) was 0.03 to 0.75 µg/mL. For the same compound, the “ESBL NDP Test from: Blood culture” value (S. marcescens [2]; [3]) was “−” and the “ESBL NDP Test from: Blood culture” value (S. marcescens [2]; [4]) was “−”.
